Measured values published in article PMC11822212, “High-throughput screening identifies Aurora kinase B as a critical therapeutic target for Merkel cell carcinoma” (Nature Communications, 2025).

Assays:
[1] = system: MCC26 cells (VN-MCC); type: cell-based, human
Method: (§1) A non-targeting control (Silencer Select Negative Control No. 2 siRNA) and a positive control (AllStars Cell Death Control siRNA) were used as controls. Lipofectamine RNAiMax (Thermo Fisher Scientific, Grand Island, NY) was obtained as the transfection reagent. […] Three siRNAs per gene were arrayed in 384 well plates, one siRNA per well. […] Cell viability was measured by CellTiter-Glo assay following the manufacturer's instructions (G7572; Promega, Madison, WI, USA) 96 h after siRNA transfection. Assay plates were measured using BMG Pherastar plate reader Three different siRNAs (sequences: [NT], and [NT] targeting INCENP as well as negative non-targeting siRNA control were purchased from Thermo Fisher Scientific (Grand Island, NY).

[2] = system: MKL-2 cells (VP-MCC); type: cell-based, human
Method: as §1

[3] = system: MCC13 cells (VN-MCC); test: qHTS cell viability (CellTiter-Glo, 72 h; primary and follow-up small molecule screen); type: cell-based, human
[4] = system: MCC26 cells (VN-MCC); test: as above; type: cell-based, human
[5] = system: UISO cells (VN-MCC); test: as above; type: cell-based, human
[6] = system: WAGA cells (VP-MCC); test: as above; type: cell-based, human
[7] = system: MKL-1 cells (VP-MCC); test: as above; type: cell-based, human
[8] = system: MKL-2 cells (VP-MCC); test: as above; type: cell-based, human
[9] = system: HACAT cells; test: qHTS cell viability (CellTiter-Glo, 72 h; primary screen), control cell line; type: cell-based, human
[10] = system: HEK293T cells; test: as above; type: cell-based, human
[11] = system: NIH-3T3 cells; test: as above; type: cell-based, mouse
[12] = system: CRL-7250 cells; test: as above; type: cell-based
[13] = system: MCC cell lines (WAGA, MKL-1, MKL-2, MCC13, MCC26, UISO); test: qHTS cell viability, all six MCC cell lines as a group (mean AUC, MCC.avg); type: cell-based, human; settings: NPC library
[14] = system: VP-MCC cell lines (WAGA, MKL-1, MKL-2); test: qHTS cell viability, VP-MCC cell lines as a group (mean AUC, VP.MCC.avg); type: cell-based, human; settings: for VP-MCC_Avg_AUC: mean AUC of VP-MCC cell lines
[15] = system: VN-MCC cell lines (MCC13, MCC26, UISO); test: qHTS cell viability, VN-MCC cell lines as a group (mean AUC, VN.MCC.avg); type: cell-based, human; settings: for VN-MCC_Avg_AUC: mean AUC of VN-MCC cell lines
[16] = system: control cell lines (HACAT, HEK293T, CRL-7250, NIH-3T3); test: qHTS cell viability, control cell lines as a group (mean AUC, Control.avg); type: cell-based; settings: NPC library; mean AUC of control cell lines
[17] = system: six MCC cell lines and four control cell lines; test: qHTS cell viability, all 10 cell lines screened; type: cell-based; settings: NPC library; therapeutic window: Control avg AUC minus MCC avg AUC
[18] = NPC library, qHTS dose-response AUC, MCC13
[19] = NPC library, qHTS dose-response AUC, UISO
[20] = NPC library, qHTS dose-response AUC, WAGA
[21] = NPC library, qHTS dose-response AUC, MKL1
[22] = NPC library, qHTS dose-response AUC, MKL2
[23] = NPC library, qHTS dose-response AUC, HACAT control
[24] = NPC library, qHTS dose-response AUC, NIH3T3 control
[25] = NPC library, qHTS dose-response AUC, CRL7250 control
[26] = NPC library, therapeutic window: Control avg AUC minus VP-MCC avg AUC
[27] = NPC library, therapeutic window: Control avg AUC minus VN-MCC avg AUC

## CAAAGGAAACCAACAAUAAtt (CAAAGGAAACCAACAAUAATT; chemistry not given here)
[1]
  Percent viability: 87.6%
[2]
  Percent viability: 80.7%

## UGAAUGUAGAGAUGCGGUG (chemistry not given here)
[1]
  Percent viability: 98.4%
[2]
  Percent viability: 74.1%

## UAUUGUUGGUUUCCUUUGC (chemistry not given here)
[1]
  Percent viability: 96.2%
[2]
  Percent viability: 92.8%

## AAAUGUUGAUCUCCUUUCC (chemistry not given here)
[1]
  Percent viability: 97.2%
[2]
  Percent viability: 84.7%

## GCUUGUACCUCAUAUCAGAtt (GCUUGUACCUCAUAUCAGATT; chemistry not given here)
[1]
  Percent viability: 90.4%
[2]
  Percent viability: 48.4%

## GCAGGUUCCUUAUCUGUCAtt (GCAGGUUCCUUAUCUGUCATT; chemistry not given here)
[1]
  Percent viability: 85.0%
[2]
  Percent viability: 56.1%

## AGUCCUUUAUUAAGCGCAAtt (AGUCCUUUAUUAAGCGCAATT; chemistry not given here)
[1]
  Percent viability: 103.7%
[2]
  Percent viability: 80.2%

## CC[N+](CC)(CC)CCOC(=O)C(C1CCCC1)C1CCCC1 [Diponium bromide]
[3]; [18]
  MCC13_AUC: 522.801
[3]; area under the dose-response curve, MCC13 cells, AUC<450 = reduced viability
  MCC13_AUC: 522.801
[4]; NPC library; qHTS dose-response AUC, MCC26
  MCC26_AUC: 499.996
[4]; area under the dose-response curve, MCC26 cells; AUC<450 = reduced viability
  MCC26_AUC: 499.996
[5]; [19]
  UISO_AUC: 475.444
[5]; area under the dose-response curve, UISO cells, AUC<450 = reduced viability
  UISO_AUC: 475.444
[6]; [20]
  WAGA_AUC: 427.062
[6]; area under the dose-response curve, WAGA cells, AUC<450 = reduced viability
  WAGA_AUC: 427.062
[7]; [21]
  MKL1_AUC: 427.875
[7]; area under the dose-response curve, MKL-1 cells, AUC<450 = reduced viability
  MKL1_AUC: 427.875
[8]; [22]
  MKL2_AUC: 434.115
[8]; area under the dose-response curve, MKL-2 cells, AUC<450 = reduced viability
  MKL2_AUC: 434.115
[9]; [23]
  HACAT_AUC: 486.819
[9]; area under the dose-response curve, HACAT control cells, AUC<450 = reduced viability
  HACAT_AUC: 486.819
[10]; NPC library; qHTS dose-response AUC, HEK293T control
  HEK293T_AUC: 472.065
[10]; area under the dose-response curve, HEK293T control cells; AUC<450 = reduced viability
  HEK293T_AUC: 472.065
[11]; [24]
  NIH3T3_AUC: 484.264
[11]; area under the dose-response curve, NIH3T3 control cells, AUC<450 = reduced viability
  NIH3T3_AUC: 484.264
[12]; [25]
  CRL7250_AUC: 487.778
[12]; area under the dose-response curve, CRL7250 control cells, AUC<450 = reduced viability
  CRL7250_AUC: 487.778
[13]; mean AUC of six MCC cell lines
  MCC_Avg_AUC: 464.549
[14]; NPC library
  VP-MCC_Avg_AUC: 429.684
[14]; [26]
  Control-VP-MCC: 53.0478
[15]; NPC library
  VN-MCC_Avg_AUC: 499.413
[15]; [27]
  Control-VN-MCC: -16.6818
[16]
  Control_Avg_AUC: 482.732
[17]
  Control-MCC: 18.183

## COc1c(C)c2c(c(O)c1C/C=C(\C)CCC(=O)OCCN1CCOCC1)C(=O)OC2 [Mycophenolate mofetil]
[3]; [18]
  MCC13_AUC: 354.203
[3]; follow-up screen, MCC13, replicate 1
  Area under the dose-response curve (AUC) MCC13 Replicate 1: 377.4
[3]; follow-up screen, MCC13, replicate 2
  Area under the dose-response curve (AUC) MCC13 Replicate 2: 383.7
[3]; follow-up screen, MCC13, replicate 3
  Area under the dose-response curve (AUC) MCC13 Replicate 3: 412.3
[4]; NPC library, qHTS dose-response AUC, MCC26
  MCC26_AUC: 393.051
[4]; follow-up screen; MCC26; replicate 1
  Area under the dose-response curve (AUC) MCC26 Replicate 1: 381.3
[4]; follow-up screen; MCC26; replicate 2
  Area under the dose-response curve (AUC) MCC26 Replicate 2: 385.2
[4]; follow-up screen; MCC26; replicate 3
  Area under the dose-response curve (AUC) MCC26 Replicate 3: 373.0
[5]; [19]
  UISO_AUC: 380.141
[5]; follow-up screen, UISO, replicate 1
  Area under the dose-response curve (AUC) UISO Replicate 1: 348.1
[5]; follow-up screen, UISO, replicate 2
  Area under the dose-response curve (AUC) UISO Replicate 2: 378.4
[5]; follow-up screen, UISO, replicate 3
  Area under the dose-response curve (AUC) UISO Replicate 3: 389.6
[6]; [20]
  WAGA_AUC: 157.003
[6]; follow-up screen, WAGA, replicate 1
  Area under the dose-response curve (AUC) WAGA Replicate 1: 322.6
[6]; follow-up screen, WAGA, replicate 2
  Area under the dose-response curve (AUC) WAGA Replicate 2: 354.0
[6]; follow-up screen, WAGA, replicate 3
  Area under the dose-response curve (AUC) WAGA Replicate 3: 383.1
[7]; [21]
  MKL1_AUC: 148.352
[7]; follow-up screen, MKL-1, replicate 1
  Area under the dose-response curve (AUC) MKL-1 Replicate 1: 342.8
[7]; follow-up screen, MKL-1, replicate 2
  Area under the dose-response curve (AUC) MKL-1 Replicate 2: 365.2
[7]; follow-up screen, MKL-1, replicate 3
  Area under the dose-response curve (AUC) MKL-1 Replicate 3: 378.9
[8]; [22]
  MKL2_AUC: 105.914
[8]; follow-up screen, MKL-2, replicate 1
  Area under the dose-response curve (AUC) MKL-2 Replicate 1: 325.5
[8]; follow-up screen, MKL-2, replicate 2
  Area under the dose-response curve (AUC) MKL-2 Replicate 2: 324.8
[8]; follow-up screen, MKL-2, replicate 3
  Area under the dose-response curve (AUC) MKL-2 Replicate 3: 367.3
[9]; [23]
  HACAT_AUC: 439.79
[10]; NPC library, qHTS dose-response AUC, HEK293T control
  HEK293T_AUC: 332.795
[11]; [24]
  NIH3T3_AUC: 433.09
[12]; [25]
  CRL7250_AUC: 396.679
[13]; mean AUC of all 6 MCC cell lines
  MCC_Avg_AUC: 256.444
[13]; mean AUC of six MCC cell lines
  MCC_Avg_AUC: 256.444
[14]; Control AUC minus VP-MCC AUC
  Control-VP-MCC: 263.498
[14]; NPC library
  VP-MCC_Avg_AUC: 137.09
[14]; [26]
  Control-VP-MCC: 263.498
[15]; Control AUC minus VN-MCC AUC
  Control-VN-MCC: 24.7903
[15]; NPC library
  VN-MCC_Avg_AUC: 375.798
[15]; [27]
  Control-VN-MCC: 24.7903
[16]
  Control_Avg_AUC: 400.588
[17]
  Control-MCC: 144.144

## AGAUCAACCCAGAUAACUAtt (AGAUCAACCCAGAUAACUATT; chemistry not given here)
[1]
  Percent viability: 73.1%
[2]
  Percent viability: 48.5%
